ChEMBL document CHEMBL5380859, “Bioactivity-Driven Synthesis of the Marine Natural Product Naamidine J and Its Derivatives as Potential Tumor Immunological Agents by Inhibiting Programmed Death-Ligand 1” (J Med Chem, 2023)
Activity calls are given as the source filed them. No cut-off for these calls is given here.

Experiments:
RKO [1] = test: Cytotoxicity against human RKO cells assessed as reduction in cell viability after 24 hrs by CCK8 assay; format: functional, cell-based
RKO [2] = test: Downregulation of PD-L1 expression level in human RKO cells at 10 uM incubated for 24 hrs by Western blot analysis; format: functional, cell-based
RKO [3] = test: Downregulation of PD-L1 expression level in human RKO cells at 1 to 10 uM by Western blot analysis; format: functional, cell-based; settings: dose 1-10 µM, time 3-24 hrs, TDE = time-dependent effect
RKO [4] = test: Downregulation of PD-L1 expression level in human RKO cells incubated for 24 hrs by Western blot analysis; format: functional, cell-based; settings: dose 1-10 µM
RKO [5] = test: Effect on PD-L1 mRNA level in human RKO cells at 1 to 10 uM by qRT-PCR analysis; format: functional, cell-based; settings: dose 1-10 µM
RKO [6] = test: Downregulation of PD-L1 expression level in human RKO cells assessed as turnover rate at 5 uM incubated for 12 hrs in presence of CHX by immunoblotting analysis; format: functional, cell-based
[7] = target: Programmed cell death 1 ligand 1 (Homo sapiens) (UniProt Q9NZQ7); test: Induction of PD-L1 degradation in human RKO cells at 5 uM in presence of MG132 incubated for 24 hrs by Western blot analysis; format: cell-based
[8] = target: Programmed cell death 1 ligand 1 (Homo sapiens) (UniProt Q9NZQ7); test: Induction of PD-L1 degradation in human RKO cells at 5 uM in presence of CQ incubated for 24 hrs by Western blot analysis; format: cell-based
[9] = target: Programmed cell death 1 ligand 1 (Homo sapiens) (UniProt Q9NZQ7); test: Induction of PD-L1 degradation in human RKO cells at 5 uM in presence of 3-MA incubated for 24 hrs by Western blot analysis; format: cell-based
RKO [10] = test: Antitumor activity in human RKO cells cocultured with […] assessed as induction of T-cell mediated cell killing at 10 uM incubated for 24 hrs by crystal violet staining method; format: functional, cell-based
MC-38 [11] = test: Antitumor activity against mouse MC38 cells implanted in C57BL/6 mouse assessed as reduction in tumor growth at 50 mg/kg, ip administered once daily for 16 days; format: functional, organism-based; settings: time 16.0 day
MC-38 [12] = test: Antitumor activity against mouse MC38 cells implanted in C57BL/6 mouse assessed as reduction in tumor growth at 25 mg/kg, ip administered once daily for 16 days; format: functional, organism-based; settings: time 16.0 day
MC-38 [13] = test: Antitumor activity against mouse MC38 cells implanted in C57BL/6 mouse assessed as inhibition of tumor size at 50 mg/kg, ip administered once daily for 16 days; format: functional; settings: MC-38, 384 h, time 16 day
MC-38 [14] = test: Antitumor activity against mouse MC38 cells implanted in C57BL/6 mouse assessed as reduction in tumor weight at 50 mg/kg, ip administered once daily for 16 days and measured for every 2 days; format: functional, organism-based; settings: time 16.0 day
[15] = Toxicity in C57BL/6 mouse implanted with mouse MC38 cells assessed as change in body weight at 50 mg/kg, ip administered once daily for 16 days and measured every 2 days; format: organism-based, MC-38; settings: in vivo, 384 h, time 16 day
MC-38 [16] = test: Antitumor activity against mouse MC38 cells implanted in C57BL/6J mouse assessed as increase in number of CD8 positive T cells at 50 mg/kg, ip administered once daily for 16 days by flow cytometry analysis; format: functional, organism-based; settings: time 16.0 day
MC-38 [17] = test: Antitumor activity against mouse MC38 cells implanted in C57BL/6J mouse assessed as as increase in ratio of CD8 positive T cells to CD4 positive T cells at 50 mg/kg, ip administered once daily for 16 days by flow cytometry analysis; format: functional, organism-based; settings: time 16.0 day
MC-38 [18] = test: Antitumor activity against mouse MC38 cells implanted in C57BL/6 mouse assessed as upregulation of CD3 expression at 50 mg/kg, ip administered once daily and measured after 16 days by immunohistochemistry analysis; format: functional, organism-based; settings: time 16.0 day
MC-38 [19] = test: Antitumor activity against mouse MC38 cells implanted in C57BL/6 mouse assessed as downregulation of FOXP3 expression at 50 mg/kg, ip administered once daily and measured after 16 days by immunohistochemistry analysis; format: functional, organism-based; settings: time 16.0 day
MC-38 [20] = test: Antitumor activity against mouse MC38 cells implanted in C57BL/6 mouse assessed as downregulation of PD-L1 expression at 50 mg/kg, ip administered once daily and measured after 16 days by immunohistochemistry analysis; format: functional, organism-based; settings: time 16.0 day
MC-38 [21] = test: Antitumor activity against mouse MC38 cells implanted in C57BL/6 mouse assessed as upregulation of cleaved caspase 3 at 50 mg/kg, ip administered once daily and measured after 16 days by immunohistochemistry analysis; format: functional, organism-based; settings: time 16.0 day

Programmed cell death 1 ligand 1 (Homo sapiens), sequence (Q9NZQ7 whole entry): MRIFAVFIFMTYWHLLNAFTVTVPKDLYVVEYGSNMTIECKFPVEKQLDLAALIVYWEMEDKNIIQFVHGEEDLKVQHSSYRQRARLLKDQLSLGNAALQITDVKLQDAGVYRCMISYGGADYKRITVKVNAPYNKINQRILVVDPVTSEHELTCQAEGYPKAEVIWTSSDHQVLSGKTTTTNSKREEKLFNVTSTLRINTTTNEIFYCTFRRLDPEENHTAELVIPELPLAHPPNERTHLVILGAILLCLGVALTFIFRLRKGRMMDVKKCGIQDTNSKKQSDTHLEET

SMILES | IC50 (RKO [1]) | Activity (RKO [2]) | other results
COc1ccc(Cc2nc(NC(=O)c3ccccc3O)n(C)c2Cc2ccc(OC)c(OC)c2)cc1 | > 40 µM | Active | 
CNC(=O)Nc1nc(Cc2ccc(OC)cc2)c(Cc2ccc(OC)c(OC)c2)n1C | 24.2 µM | Active | 
COc1ccc(Cc2nc(NC(=O)c3ccccc3)n(C)c2Cc2ccc(OC)c(OC)c2)cc1 | > 40 µM |  | 
COc1ccc(Cc2nc(NC(=O)c3cccc(N(C)C)c3)n(C)c2Cc2ccc(OC)c(OC)c2)cc1 | > 40 µM |  | 
COC(=O)C12CCC(C(=O)Nc3nc(Cc4ccc(OC)cc4)c(Cc4ccc(OC)c(OC)c4)n3C)(CC1)CC2 | 14.6 µM |  | 
COc1ccc(Cc2nc(NC(=O)c3cccc(N)c3)n(C)c2Cc2ccc(OC)c(OC)c2)cc1 | 20.1 µM |  | 
COc1ccc(Cc2nc(NC(=O)c3ccc(C(C)=O)cc3)n(C)c2Cc2ccc(OC)c(OC)c2)cc1 | 26.9 µM |  | 
COc1ccc(Cc2nc(NC(=O)c3cccc(NC(=O)CN(C)C)c3)n(C)c2Cc2ccc(OC)c(OC)c2)cc1 | 5.3 µM | Active | 
COc1ccc(Cc2nc(NC(=O)c3ccc(N)cc3)n(C)c2Cc2ccc(OC)c(OC)c2)cc1 | 24.9 µM |  | 
COc1ccc(Cc2nc(NC(=O)C3CCCCC3)n(C)c2Cc2ccc(OC)c(OC)c2)cc1 | > 40 µM |  | 
COc1ccc(Cc2nc(NC(=O)C34C[C@H]5C[C@H](C3)C[C@@H](C4)C5)n(C)c2Cc2ccc(OC)c(OC)c2)cc1 | 25.7 µM | Active | 
CCCCC(=O)Nc1cccc(C(=O)Nc2nc(Cc3ccc(OC)cc3)c(Cc3ccc(OC)c(OC)c3)n2C)c1 | 5.2 µM | Active | 
COc1ccc(Cc2nc(NC(=O)c3ccco3)n(C)c2Cc2ccc(OC)c(OC)c2)cc1 | 29.5 µM | Active | 
COc1ccc(Cc2nc(NC(=O)C3CC4(C3)CC(F)(F)C4)n(C)c2Cc2ccc(OC)c(OC)c2)cc1 | > 40 µM |  | 
COc1ccc(Cc2nc(NC(=O)c3cc(Br)ccc3O)n(C)c2Cc2ccc(OC)c(OC)c2)cc1 | 20.4 µM |  | 
COc1ccc(Cc2nc(NC(=O)c3ccc(NC(=O)OC(C)(C)C)cc3)n(C)c2Cc2ccc(OC)c(OC)c2)cc1 | 22.4 µM |  | 
COc1ccc(Cc2nc(NC(=O)c3ccc(OC(F)(F)F)cc3)n(C)c2Cc2ccc(OC)c(OC)c2)cc1 | 23.9 µM | Active | 
CCCCC(=O)Nc1nc(Cc2ccc(OC)cc2)c(Cc2ccc(OC)c(OC)c2)n1C | > 40 µM |  | 
COc1ccc(Cc2nc(NC(=O)C3CCOCC3)n(C)c2Cc2ccc(OC)c(OC)c2)cc1 | 33.3 µM | Active | 
CNc1cccc(C(=O)Nc2nc(Cc3ccc(OC)cc3)c(Cc3ccc(OC)c(OC)c3)n2C)c1 | > 40 µM |  | 
COc1ccc(Cc2nc(NC(=O)c3cccc(NC(=O)OC(C)(C)C)c3)n(C)c2Cc2ccc(OC)c(OC)c2)cc1 | 31.7 µM | Active | Activity (RKO [3]): Tde; Activity (RKO [4]): Dose-Dependent Effect; Activity (RKO [5]): inactive; Activity (RKO [6]): inactive; Activity [7]: Active; Activity [8]: Active; Activity [9]: inactive; Activity (RKO [10]): Active; Activity (MC-38 [11]): Active; Activity (MC-38 [12]): inactive; inhibition in vivo at 50 mg/kg (MC-38 [13]): 45%; Activity (MC-38 [14]): Active; Activity [15]: Non-Toxic; Activity (MC-38 [16]): Active; Activity (MC-38 [17]): Active; Activity (MC-38 [18]): Active; Activity (MC-38 [19]): Active; Activity (MC-38 [20]): Active; Activity (MC-38 [21]): Active
COc1ccc(Cc2nc(NC(=O)c3cccc(NC(C)=O)c3)n(C)c2Cc2ccc(OC)c(OC)c2)cc1 | > 40 µM |  | 
COc1ccc(Cc2nc(NC(=O)c3sc(C)nc3C(F)(F)F)n(C)c2Cc2ccc(OC)c(OC)c2)cc1 | 30.8 µM | Active | 
COc1ccc(Cc2nc(NC(=O)c3cc(OC)cc(OC)c3)n(C)c2Cc2ccc(OC)c(OC)c2)cc1 | > 40 µM |  | 
COc1ccc(Cc2nc(NC(=O)c3ccc(F)cc3)n(C)c2Cc2ccc(OC)c(OC)c2)cc1 | > 40 µM |  | 
